Target: T1, KRas G12C (Homo sapiens, UniProt P01116, G12C)
T1 construct: NCI-H358 cells (ATCC CRL-5807) express KRas G12C
Test: Inhibition of KRas G12C-dependent cell growth: Phospho-ERK in NCI-H358 cells
Type: cell-based
Conditions: NCI-H358 cells expressing KRas G12C; Phospho-ERK (Thr202/Tyr204) normalized to GAPDH; 3 hours compound; 4 parameter fit
Procedure: The cellular inhibition of KRAs G12C by exemplary compounds of the present invention was determined by measuring the amount of a downstream marker of KRas activity, phosphorylated ERK (“Phospho-ERK”).
NCI-H358 cells (ATCC CRL-5807) express KRas G12C and were grown in RPMI medium supplemented with 10% fetal bovine serum, penicillin/streptomycin and 10 mM HEPES. Cells were plated in poly-D-Lysine coated 96-well plates at a concentration of 50,000 cells/well and allowed to attach for 8-12 hours. Diluted compounds were then added at a final concentration of 0.5% DMSO. After 3 hours, the medium was removed, 150 μL of 4% formaldehyde was added and the plates were incubated for 20 minutes. The plates were washed with PBS, and permeabilized using 150 μL of ice cold 100% methanol for 10 minutes. Non-specific antibody binding to the plates was blocked using 100 μL Licor Blocking Buffer (Li-Cor Biotechnology, Lincoln Nebr.) for 1 hour at room temperature. Positive control samples and samples lacking cells were parallel processed with test samples as standards.
The amount Phospho-ERK was determined using an antibody specific for the phosphorylated form of ERK and compared to the amount of GAPDH. Primary antibodies used for detection were added as follows: Phospho-ERK (Cell Signaling cs9101) diluted 1:500 and GAPDH (Millipore MAB374) diluted 1:5000 in Licor block+0.05% Tween 20. The plates were incubated for 2 hours at room temperature. The plates were washed with PBS+0.05% Tween 20.
Secondary antibodies used to visualize primary antibodies were added as follows: Anti-rabbit-680 diluted 1:1000 and Anti-mouse-800 diluted 1:1000 in Licor Block+0.05% Tween 20 and incubated for 1 hour at room temperature. The plates were washed with PBS+0.05% Tween 20. A 100 μL aliquot of PBS was added to each well and the plates were read on a LICOR AERIUS plate reader.
The pERK(Thr202/Tyr204) signal was normalized with the GAPDH signal and percent of DMSO control values were calculated. IC50 values were generated using a 4 parameter fit of the dose response curve.

T1 sequence (P01116 1-188 isoform P01116-2 G12C): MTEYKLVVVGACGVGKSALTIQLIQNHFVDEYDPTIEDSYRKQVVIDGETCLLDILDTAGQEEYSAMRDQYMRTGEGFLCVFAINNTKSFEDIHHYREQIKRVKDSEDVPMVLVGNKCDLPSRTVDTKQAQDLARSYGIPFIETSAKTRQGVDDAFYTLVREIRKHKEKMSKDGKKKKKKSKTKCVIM

## C=CC(=O)N1CCN(c2nc(OC[C@@H]3CCCN3C)nc3c(F)c(-c4cccc5ccc(F)c(Cl)c45)ncc23)CC1 [Example 171]
  IC50: 0.022 µM

## C=C(F)C(=O)N1CCN(c2nc(OC[C@@H]3CN(C)C[C@@H]3F)nc3c(F)c(-c4cccc5ccc(F)c(Cl)c45)ncc23)C[C@@H]1CC#N [Example 194]
  IC50: 0.064 µM

## C=C(F)C(=O)N1CCN(c2nc(OC[C@H]3[C@H](F)CCN3C)nc3c(F)c(-c4cccc5ccc(F)c(Cl)c45)ncc23)C[C@@H]1CC#N [Example 168]
  IC50: 0.065 µM

## Cc1cccc2cccc(-c3ncc4c(N5CCN(C(=O)/C=C/CF)[C@@H](CC#N)C5)nc(OC[C@@H]5CC(F)(F)CN5C)nc4c3F)c12 [Example 24, 2-((S)-4-(2-(((S)-4,4-difluoro-1-methylpyrrolidin-2-yl)methoxy)-8-fluoro-7-(8-methylnaphthalen-1-yl)pyrido[4,3-d]pyrimidin-4-yl)-1-((E)-4-fluorobut-2-enoyl)piperazin-2-yl)acetonitrile]
  IC50: 0.109 µM

## C=CC(=O)N1CC[C@@H]2[C@H]1CN2c1nc(C)nc2c(F)c(-c3cccc4ccc(F)c(Cl)c34)ncc12 [Example 238]
  IC50: 0.379 µM

## C=CC(=O)N1C2CCC1CN(c1nc(OC[C@@H]3CCCN3C)nc3c(F)c(-c4cc(O)cc5ccccc45)ncc13)C2 [Example 9, 1-[3-[8-fluoro-7-(3-hydroxy-1-naphthyl)-2-[[(2S)-1-methylpyrrolidin-2-yl]methoxy]pyrido[4,3-d]pyrimidin-4-yl]-3,8-diazabicyclo[3.2.1]octan-8-yl]prop-2-en-1-one]
  IC50: 0.142 µM

## O=C(/C=C/C(F)F)N1CC[C@@H]2[C@H]1CN2c1ncnc2c(F)c(-c3cccc4ccc(F)c(Cl)c34)ncc12 [Example 261]
  IC50: 0.486 µM

## C=CC(=O)N1CC[C@@H]2[C@H]1CN2c1ncnc2c(F)c(-c3cccc4ccsc34)ncc12 [Example 278]
  IC50: 10 µM

## C=C(F)C(=O)N1CCN(c2nc(OCC34CCCN3CCC4)nc3c(F)c(-c4cccc(F)c4C(F)(F)F)ncc23)C[C@@H]1CC#N [Example 101]
  IC50: 0.043 µM

## C=CC(=O)N1CC[C@@H]2[C@H]1CN2c1nc(N(CC)CC)nc2c(F)c(-c3cccc4ccc(F)c(Cl)c34)ncc12 [Example 275]
  IC50: 10 µM

## C=CC(=O)N1CCN(c2nc(OC[C@@H]3CCCN3C)nc3c(F)c(-c4cccc5cccc(C)c45)ncc23)C[C@@H]1CC#N [Example 10, 2-[(2S)-4-[8-fluoro-7-(8-methyl-1-naphthyl)-2-[[(2S)-1-methylpyrrolidin-2-yl]methoxy]pyrido[4,3-d]pyrimidin-4-yl]-1-prop-2-enoyl-piperazin-2-yl]acetonitrile]
  IC50: 0.002 µM

## C=CC(=O)N1CC[C@@H]2[C@H]1CN2c1ncnc2c(F)c(-c3cccc4sccc34)ncc12 [Example 276]
  IC50: 6.61 µM

## C=CC(=O)N1CCN(c2nc(OC[C@@H]3CCCN3C)nc3c(F)c(-c4cccc5cccc(Cl)c45)ncc23)[C@@H](C)C1 [Example 69]
  IC50: 0.058 µM

## C=C(F)C(=O)N1CCN(c2nc(OC[C@H]3CN(C)CCO3)nc3c(F)c(-c4cccc5ccc(F)c(Cl)c45)ncc23)C[C@@H]1CC#N [Example 158]
  IC50: 0.068 µM

## C=C(F)C(=O)N1CCN(c2nc(OC[C@H]3[C@@H]4CC[C@@H](C4)N3CC(F)F)nc3c(F)c(-c4cccc5ccc(F)c(Cl)c45)ncc23)C[C@@H]1CC#N [Example 196]
  IC50: 1.73 µM

## C=CC(=O)N1CCN(c2ncnc3c(F)c(-c4c(C)c(C)cc5[nH]ncc45)ncc23)CC1 [Example 198]
  IC50: 8 µM

## C=CC(=O)N1CCN(c2ncnc3c(F)c(-c4cccc5ccc(F)c(Cl)c45)ncc23)[C@H](C)C1 [Example 133]
  IC50: 10 µM

## C=C(F)C(=O)N1CCN(c2nc(OCC3CCN3C(C)(C)C)nc3c(F)c(-c4cccc5cccc(Cl)c45)ncc23)C[C@@H]1CC#N (stereo partly drawn) [Example 59, 2-[(2S)-4-[2-[(1-tert-butylazetidin-2-yl)methoxy]-7-(8-chloro-1-naphthyl)-8-fluoro-pyrido[4,3-d]pyrimidin-4-yl]-1-(2-fluoroprop-2-enoyl)piperazin-2-yl]acetonitrile]
  IC50: 0.06 µM

## C=C(F)C(=O)N1CCN(c2nc(OC[C@@H]3CC(F)(F)CN3C)nc3c(F)c(-c4cccc5cccc(C)c45)ncc23)C[C@@H]1CC#N [Example 13, 2-((S)-4-(2-(((S)-4,4-difluoro-1-methylpyrrolidin-2-yl)methoxy)-8-fluoro-7-(8-methylnaphthalen-1-yl)pyrido[4,3-d]pyrimidin-4-yl)-1-(2-fluoroacryloyl)piperazin-2-yl)acetonitrile]
  IC50: 0.127 µM

## C=CC(=O)N1CCN(c2nc(C)nc3c(F)c(-c4cccc5ccc(F)c(Cl)c45)ncc23)C[C@@H]1CC#N [Example 122]
  IC50: 0.032 µM

## C#Cc1cccc2cccc(-c3ncc4c(N5CC[C@@H]6[C@H]5CN6C(=O)C=C)ncnc4c3F)c12 [Example 245, 1-((1R,5R)-2-(7-(8-ethynylnaphthalen-1-yl)-8-fluoropyrido[4,3-d]pyrimidin-4-yl)-2,6-diazabicyclo[3.2.0]heptan-6-yl)prop-2-en-1-one]
  IC50: 4.04 µM

## C=C(F)C(=O)N1CCN(c2nc(OCC3COC3)nc3c(F)c(-c4cccc5ccc(F)c(Cl)c45)ncc23)C[C@@H]1CC#N [Example 151]
  IC50: 0.256 µM

## C=C(F)C(=O)N1CCN(c2nc(OC[C@H]3CCN3CC)nc3c(F)c(-c4cccc5ccc(F)c(Cl)c45)ncc23)C[C@@H]1CC#N [Example 172]
  IC50: 0.018 µM

## CN(C)CC#CC(=O)N1CCN(c2ncnc3c(F)c(-c4cccc5ccc(F)c(Cl)c45)ncc23)CC1 [Example 200]
  IC50: 0.41 µM

## C=CC(=O)N1C[C@@H](C)N(c2ncnc3c(F)c(-c4cccc5ccc(F)c(Cl)c45)ncc23)[C@@H](C)C1 [Example 149]
  IC50: 10 µM

## CC#CC(=O)N1CCN(c2ncnc3c(F)c(-c4cccc5ccc(F)c(Cl)c45)ncc23)CC1 [Example 201]
  IC50: 10 µM

## N#CC[C@H]1CN(c2nc(OCCCN3C[C@@H]4C[C@H]3CO4)nc3c(F)c(-c4cccc5cccc(Cl)c45)ncc23)CCN1C(=O)/C=C/CF [Example 31, 2-[(2S)-4-[7-(8-chloro-1-naphthyl)-8-fluoro-2-[3-[(1S,4S)-2-oxa-5-azabicyclo[2.2.1]heptan-5-yl]propoxy]pyrido[4,3-d]pyrimidin-4-yl]-1-[(E)-4-fluorobut-2-enoyl]piperazin-2-yl]acetonitrile]
  IC50: 0.033 µM

## COC/C=C/C(=O)N1CCN(c2nc(OC[C@@H]3C[C@@H](F)CN3C)nc3c(F)c(-c4cccc5cccc(C)c45)ncc23)C[C@@H]1CC#N [Example 49, 2-[(2S)-4-[8-fluoro-2-[[(2S,4R)-4-fluoro-1-methyl-pyrrolidin-2-yl]methoxy]-7-(8-methyl-1-naphthyl)pyrido[4,3-d]pyrimidin-4-yl]-1-[(E)-4-methoxybut-2-enoyl]piperazin-2-yl]acetonitrile]
  IC50: 0.062 µM

## C=C(F)C(=O)N1CCN(c2nc(OC[C@@H]3CCCN3C(C)C)nc3c(F)c(-c4cccc5cccc(Cl)c45)ncc23)C[C@@H]1CC#N [Example 125]
  IC50: 0.042 µM

## C=C(F)C(=O)N1CCN(c2nc(OC[C@@H]3C[C@@H](F)CN3C(C)C)nc3c(F)c(-c4cccc5ccc(F)c(Cl)c45)ncc23)C[C@@H]1CC#N [Example 116]
  IC50: 0.031 µM

## C=CC(=O)N1CCN(c2nc(OC[C@@H]3CCCN3C)nc3c(F)c(-c4cccc5ccc(F)c(Cl)c45)ncc23)C[C@H]1C [Example 152]
  IC50: 0.322 µM

## C=CC(=O)N1CCN(c2ncnc3c(F)c(-c4cccc5ccc(F)c(Cl)c45)ncc23)[C@@H](C)C1 [Example 123]
  IC50: 3.96 µM

## C=C(F)C(=O)N1CCN(c2nc(OC[C@@H]3CCCN3C)nc3c(F)c(-c4cccc5ccc(Cl)c(Cl)c45)ncc23)C[C@@H]1CC#N [Example 147]
  IC50: 0.023 µM

## C=C(F)C(=O)N1CCN(c2nc(OC[C@@H]3C[C@@H](F)CN3C)nc3c(F)c(-c4cccc5ccc(F)c(Cl)c45)ncc23)C[C@@H]1CC#N [Example 126]
  IC50: 0.015 µM

## C=CC(=O)N1C2CCC1CN(c1ncnc3c(F)c(-c4cccc5ccc(F)c(Cl)c45)ncc13)C2 [Example 131]
  IC50: 10 µM

## C=C(F)C(=O)N1CCN(c2nc(OCC3CCN3CC)nc3c(F)c(-c4cccc5ccc(F)c(Cl)c45)ncc23)C[C@@H]1CC#N (some centres unmarked) [Example 139]
  IC50: 0.037 µM

## C=CC(=O)N1CC[C@@H]2[C@H]1CN2c1ncnc2c(F)c(-c3cccc4cc(OC)ccc34)ncc12 [Example 266]
  IC50: 10 µM

## C=C(F)C(=O)N1CCN(c2nc(OC[C@@H]3CCCN3C)nc3c(F)c(-c4cncc5cccc(Cl)c45)ncc23)C[C@@H]1CC#N [Example 54, 2-((S)-4-(7-(5-chloroisoquinolin-4-yl)-8-fluoro-2-(((S)-1-methylpyrrolidin-2-yl)methoxy)pyrido[4,3-d]pyrimidin-4-yl)-1-(2-fluoroacryloyl)piperazin-2-yl)acetonitrile]
  IC50: 0.014 µM
